Here are results for 15 molecules from US9845322B2 (Hoffmann-La Roche Inc., priority 2016, dated 2017).

Where two headings read alike, the source gives them in different places.

Experiment [1] deals with HBsAg secretion in HepG2.2.15 cells. Kind of experiment: HBsAg assay (chemiluminescence immunoassay of secreted HBsAg in culture supernatant). It is filed as cell-based, HBV. Particulars: concentration at which HBsAg secretion was reduced by 50% compared to the no drug control, read-out: IC50 (HBsAg assay). The gist of the method: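 IC50 taken from dose-response curves as the concentration halving secreted HBsAg relative to DMSO control. Measured by chemiluminescence immunoassay of culture supernatant from constitutively HBV-expressing HepG2.2.15 cells, seeded at 1.5×10^4/well in duplicate and exposed to three-fold serial compound dilutions at 1% final DMSO.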

The test system of experiment [2] is HBV DNA production in HepG2.2.15 cells. Kind of experiment: HBV DNA assay (real-time qPCR/TaqMan of extracellular HBV DNA in cell supernatant). Particulars: Hepatitis B virus, 144 h, extracellular HBV DNA copy number, six days after initial administration, read-out: IC50 (Anti HBV DNA production activity). It is filed as cell-based. As for the experimental part:
HepG2.2.15 cells (Acs et al. Proc Natl Acad Sci USA, 84, (1987), 4641-4), a constitutively HBV-expressing cell line were cultured in DMEM+Glutamax-I medium (Invitrogen, Carlsbad, Calif., USA), supplemented with 10% fetal bovine serum (Invitrogen) and G418 (Invitrogen) at a final concentration of 200 mg/L and maintained in 5% CO2 at 37° C.
The assay employs real-time qPCR (TaqMan) to directly measure extracellular HBV DNA copy number in the cell supernatant. HepG2.2.15 cells were plated in 96-well microtiter plates before treatment with complete medium (DMEM, Glutamax, 10% FBS, 1% Penicillin/Streptomycin, 250 μg/mL Genetycin, final DMSO concentration is 1%). Only the interior wells were utilized to reduce “edge effects” observed during cell culture, the exterior wells were filled with complete medium to help minimize sample evaporation. The HepG2.2.15 cells were treated 1 h later with various concentrations of a test compound in duplicate (top concentration used at 5 μM, 2 μM or 0.5 μM according to the HBsAg IC50 observed, with ⅓ successive dilutions (total of 10 dilutions). Six days following the initial administration of the test compound, the cell culture supernatant was collected; DNA extraction was performed by automated system (Magnapure) and then used in a real-time qPCR/TaqMan assay to determine HBV DNA copy numbers. Antiviral activity was calculated from the reduction in HBV DNA levels (IC50). The compounds of the present invention were tested for their capacity to inhibit HBV DNA as described herein.
In general terms: Quantitative PCR measures a nucleic acid by following its amplification.

The mark [3] stands for this setting: Hepatitis B virus, HepG2.2.15, HepG2.2.15 cells.

By IC50 is commonly meant the concentration that gives 50% inhibition. `CC1c2cnc(-c3ncccn3)nc2CCN1c1cc(N2CCCC2)cc(F)n1` (single isomer, unassigned; (-)) [Example 200, (−)-6-(6-fluoro-4-pyrrolidin-1-yl-2-pyridyl)-5-methyl-2-pyrimidin-2-yl-7,8-dihydro-5H-pyrido[4,3-d]pyrimidine]: the IC50 is 2 nM in experiment [1] (HepG2.2.15 cells) and below 1 nM in experiment [2].

For the molecule `CC1c2cnc(-c3ncccn3)nc2CCN1c1cc(OCC(F)F)cc(F)n1` (stereo not shown) [Example 149, 6-[4-(2,2-difluoroethoxy)-6-fluoro-2-pyridyl]-5-methyl-2-pyrimidin-2-yl-7,8-dihydro-5H-pyrido[4,3-d]pyrimidine], the IC50 in experiment [1] (setting [3]) came to 10 nM; in experiment [2] it was 1 nM.

For the molecule `CNc1cc(F)nc(N2CCc3nc(-c4ncccn4)ncc3C2C)c1` (single isomer, unassigned; (-)) [Example 203, (−)-2-fluoro-N-methyl-6-[5-methyl-2-pyrimidin-2-yl-7,8-dihydro-5H-pyrido[4,3-d]pyrimidin-6-yl]pyridin-4-amine], the IC50 in experiment [1] (setting [3]) is 6 nM; in experiment [2], 0.16 nM.

As to `CC1c2cnc(-c3ncccn3)nc2CCN1c1cc(F)cc(N2CCNC(=O)C2)n1` (stereo not shown) [Example 214, 4-[4-fluoro-6-(5-methyl-2-pyrimidin-2-yl-7,8-dihydro-5H-pyrido[4,3-d]pyrimidin-6-yl)-2-pyridyl]piperazin-2-one], the figures for the IC50 in experiment [1] (setting [3]) and in experiment [2] were 22 nM and 7.2 nM, respectively.

As for `COc1cc(N2CCc3nc(-c4ncccn4)ncc3C2C)cc(F)c1F` (single isomer, unassigned; (-)) [Example 17, (−)-6-(3,4-difluoro-5-methoxy-phenyl)-5-methyl-2-pyrimidin-2-yl-7,8-dihydro-5H-pyrido[4,3-d]pyrimidine], the figures for the IC50 in experiment [1] (HepG2.2.15 cells) and in experiment [2] were 8 nM and 2 nM, respectively.

Regarding `COc1cc(F)cc(N2CCc3nc(-c4ncccn4)ncc3C2C)c1` (single isomer, unassigned; (-)) [Example 73, (−)-6-(3-fluoro-5-methoxy-phenyl)-5-methyl-2-pyrimidin-2-yl-7,8-dihydro-5H-pyrido[4,3-d]pyrimidine], the results for the IC50 in experiment [1] (HepG2.2.15 cells) and in experiment [2] were 18 nM and 5 nM, respectively.

As to `CC1c2cnc(-c3ncccn3)nc2CCN1c1cc(OCCCCCC(N)=O)cc(F)n1` (single isomer, unassigned; (-)) [Example 165, (−)-6-[[2-fluoro-6-[5-methyl-2-pyrimidin-2-yl-7,8-dihydro-5H-pyrido[4,3-d]pyrimidin-6-yl]-4-pyridyl]oxy]hexanamide], the IC50 in experiment [1] (setting [3]) is 13 nM; in experiment [2] it was below 1 nM.

Turning to `CC1c2cnc(-c3ncccn3)nc2CCN1c1cc(N(C)C)cc(F)n1` (single isomer, unassigned; (-)) [Example 207, (−)-2-fluoro-N,N-dimethyl-6-[5-methyl-2-pyrimidin-2-yl-7,8-dihydro-5H-pyrido[4,3-d]pyrimidin-6-yl]pyridin-4-amine], the IC50 in experiment [1] (HepG2.2.15 cells) was determined as 2 nM; in experiment [2] it was 0.34 nM.

For the molecule `CC1c2cnc(-c3ncccn3)nc2CCN1c1cc(N2CCNC(=O)C2)cc(F)n1` (stereo not shown) [Example 215, 4-[2-fluoro-6-(5-methyl-2-pyrimidin-2-yl-7,8-dihydro-5H-pyrido[4,3-d]pyrimidin-6-yl)-4-pyridyl]piperazin-2-one], the figures for the IC50 in experiment [1] (setting [3]) and in experiment [2] were 64 nM and 0.81 nM, respectively.

As for `CC1c2cnc(-c3ncccn3)nc2CCN1c1cc(F)c(F)c(OCCCCCCC(N)=O)c1` (stereo not shown) [Example 87, 7-[2,3-difluoro-5-(5-methyl-2-pyrimidin-2-yl-7,8-dihydro-5H-pyrido[4,3-d]pyrimidin-6-yl)phenoxy]heptanamide], the IC50 in experiment [1] (setting [3]) came out at 73 nM; in experiment [2], 10 nM.

For the molecule `COc1cc(N2CCc3nc(-c4ncccn4)ncc3C2C)cc(Cl)c1F` (single isomer, unassigned; (-)) [Example 43, (−)-6-(3-chloro-4-fluoro-5-methoxy-phenyl)-5-methyl-2-pyrimidin-2-yl-7,8-dihydro-5H-pyrido[4,3-d]pyrimidine], the IC50 in experiment [1] (HepG2.2.15 cells) came to 18 nM; in experiment [2], 8 nM.

Turning to `CC1c2cnc(-c3ncccn3)nc2CCN1c1cc(F)c(F)c(OCCCCC(N)=O)c1` (stereo not shown) [Example 64, 5-[2,3-difluoro-5-(5-methyl-2-pyrimidin-2-yl-7,8-dihydro-5H-pyrido[4,3-d]pyrimidin-6-yl)phenoxy]pentanamide], the IC50 in experiment [1] (setting [3]) came out at 62 nM; in experiment [2], 4 nM.

Turning to `CC1c2cnc(-c3ncccn3)nc2CCN1c1cc(F)c(F)c(OCCCCCCC(=O)O)c1` (stereo not shown) [Example 86, 7-[2,3-difluoro-5-(5-methyl-2-pyrimidin-2-yl-7,8-dihydro-5H-pyrido[4,3-d]pyrimidin-6-yl)phenoxy]heptanoic acid], the IC50 in experiment [1] (setting [3]) amounted to 100 nM; in experiment [2], 1 nM.

For the molecule `CC1c2cnc(-c3ccccn3)nc2CCN1c1cc(F)cc(OCC(F)F)n1` (stereo not shown) [Example 193, 6-[6-(2,2-difluoroethoxy)-4-fluoro-2-pyridyl]-5-methyl-2-(2-pyridyl)-7,8-dihydro-5H-pyrido[4,3-d]pyrimidine], in experiment [1] (setting [3]), the half-inhibitory concentration (IC50) is 83 nM.

Consider `CC1c2cnc(-c3ncccn3)nc2CCN1c1cc(OCC2CCCO2)cc(F)n1` (stereo not shown) [Example 166, 6-[6-fluoro-4-(tetrahydrofuran-2-ylmethoxy)-2-pyridyl]-5-methyl-2-pyrimidin-2-yl-7,8-dihydro-5H-pyrido[4,3-d]pyrimidine], for which the IC50 in experiment [1] (setting [3]) turned out to be 19 nM.
